# Results published in patent US20200255828A1, “METHODS AND COMPOSITIONS FOR ALTERING FUNCTION AND STRUCTURE OF CHROMATIN LOOPS AND/OR DOMAINS” (THE BROAD INSTITUTE, INC., priority 2017, published 2020).
# Tests used:
# [1] = system: cohesin complex; test: ChIP-Seq for RAD21 and SMC1 (cohesin binding to chromatin) with and without auxin; type: cell-based, human
# Description: Applicants employed an auxin-inducible degron (AID) (Natsume et al., 2016) to destroy RAD21, a core component of the cohesin complex. In this system, constitutive expression of the auxin-activated ubiquitin ligase TIR1 leads, in the presence of auxin, to rapid degradation of proteins tagged with an AID domain. Applicants used this system in HCT-116, a human colorectal carcinoma cell line. This cell line had been previously modified by (Natsume et al., 2016) so that both RAD21 alleles were tagged with an AID domain and a fluorescent mClover (“RAD21-mAC”) (FIG. 1A). Applicants confirmed that RAD21-mAC was efficiently degraded after 6 hours of auxin treatment using fluorescence microscopy and ChIP (FIG. 1B, 8, see Methods), and that cohesin could no longer associate with DNA using ChIP-Seq with antibodies for SMC1, a different cohesin subunit (FIG. 1C, D).
# ChIP-Seq for H3K27Ac, H3K4me1, H3K4me3, H3K36me3, H3K27me3, H3K9me3, H4K16Ac, H4K20me3, H3K79me2, and H2.AZ was performed using a native ChIP-Seq protocol. Chromatin from untreated HCT-116 RAD21-mAC cells or cells treated for 6 hours with 500 uM IAA was digested with Mnase (Sigma) in digestion buffer (50 mM Tris-HCl, pH7.6, 1 mM CaCl2), 0.2% Triton X-100, butyrate 5 mM) for 5′ at 37° C. and dialyzed against RIPA buffer for 2 hrs at 4° C. Five microgram of respective antibody was incubated with 40 μl of Dynabeads Protein A (or G) for 40 min at room temperature. Antibody-bound beads were added to 500 μl of sonicated or Mnase-digested chromatin, incubated at 4° C. overnight, and washed twice with RIPA buffer, twice with RIPA buffer containing 0.3 M NaCl, twice with LiCl buffer (0.25 M LiCl, 0.5% Igepal-630, 0.5% sodium deoxycholate), once with TE (pH 8.0) plus 0.2% Triton X-100, and once with TE (pH 8.0). ChIP DNA was purified by phenol-chloroform extraction followed by ethanol precipitation. Libraries were prepped for Illumina sequencing and 50 bp single-end reads were sequenced on a HiSeq2000 or 2500 (Illumina). Applicants also performed ChIP-Seq for RAD21 and CTCF following the same protocol as above, except that cells were fixed with 1% formaldehyde for 10 minutes at 37° C. and fixation was quenched by the addition of glycine to a final concentration of 125 mM for 10 minutes. The fixed cells were sonicated using a Branson sonifier at amplitude 35%, 12 cycles of 20 seconds of sonication and 30 seconds of pause. Antibody was added to the sonicated chromatin as above and the samples were further processed as above.
# Applicants also performed ChIP-Seq for SMC1 and an additional replicate for CTCF following the protocol outlined by the ENCODE consortium (2012).
# All ChIP-Seq data was aligned to hg19 with BWA […] (Li and Durbin, 2010), deduplicated using PicardTools, and analyzed with MACS 2.0 (Liu, 2014). All data was normalized against the corresponding input control using the ‘-c’ option of MACS 2.0. ChIP-Seq peaks were called using the ‘callpeak’ function of MACS 2.0 with default parameters. For H3K4me3 and H3K4me1, Applicants additionally used the ‘broad’ option of MACS 2.0 and merged close by peaks to identify broad peaks. […] Finally, in order to annotate broad-source domains, Applicants utilized RSEG (Song and Smith, 2011) using the following flags: ‘-b 25000’, ‘-i 20’, ‘-mode 2’.
# Applicants also analyzed the RAD21 and SMC1 signal at all ChIP-Seq peaks called in our data from untreated cells using MACS 2.0. […]
# [2] = system: HCT-116-CMV-OsTIR1 cells; test: PRO-Seq control for the auxin hormone itself; type: cell-based, human; conditions: no mAID tag on any protein
# Procedure: To measure changes in transcription resulting from cohesin loss, Applicants performed precision run-on sequencing (PRO-Seq) (Jonkers and Lis, 2015), a variant of global run-on sequencing (GRO-Seq), using a single biotinylated nucleotide (biotin-11-CTP) as previously described (Engreitz et al., 2016). Applicants made one modifications to the protocol: at the end of each biotin enrichment, Applicants eluted biotinylated RNAs from the streptavidin-coated magnetic beads by heating beads in 25 μl of 20 mM Tris-HCl pH 7.5, 10 mM EDTA, 2% N-lauroylsarcosine at 95° C. for 5 minutes, followed by a magnetic-bead nucleic acid purification with 20 μl of MyONE SILANE beads. During the nuclei preparation step, Applicants processed pairs of RAD21-mAC cells with and without auxin treatment in parallel. In addition, Applicants performed PRO-Seq on HCT-116 CMV-OsTIR1 cells, the parental cell line of RAD21-mAC containing the OsTIR1 gene integrated at the AAVS1 locus and no mAID tags integrated on any protein. By performing PRO-Seq on CMV-OsTIR1 cells with and without auxin treatment, Applicants could control for transcriptional effects of the auxin treatment itself on HCT-116 cells, as well as any consequences of tagging the RAD21 protein. […]
# [3] = average at ChIP-Seq peaks called in untreated cells
compound,measurement,setting,value
"O=C(O)Cc1c[nH]c2ccccc12 [auxin, indole-3-acetic acid]",cohesin peaks (merged SMC1 and RAD21 ChIP-Seq calls) lost after auxin treatment,[1]; 6 hours auxin,97%
same,reduction in binding strength of RAD21,[1]; [3],81%
same,reduction in binding strength of SMC1,[1]; [3],75%
same,RAD21 mean enrichment in treated cells,[1]; untreated 12.58,2.39
same,SMC1 mean enrichment in treated cells,[1]; untreated 16.23,4.00
same,number of genes detected as significantly different before vs after auxin treatment,[2],105
same,number of genes significantly different with at least a 1.3-fold change,[2],56
